Consider 15 compounds from ChEMBL document CHEMBL5356975, “Brønsted Acid-Mediated Conversion of Naturally Abundant Lathyrane Diterpenes: Are Rare 10,11-seco-Lathyrane Diterpenes Artifacts?” (J Nat Prod, 2024).

The subject of data set [1] is BV-2. Kind of data set: Cytotoxicity against mouse BV-2 cells assessed as reduction in cell viability at 20 uM incubated for 24 hrs by MTT assay. It counts as toxicity, cell-based. The following applies: bv-2, 24 h. For orientation: Tetrazolium dyes change colour on reduction, which living cells bring about.
For data set [2], the system named is BV-2. The experiment in a line: Antineuroinflammatory activity in LPS induced mouse BV-2 cells assessed as inhibition of NO production pretreated for 4 hrs followed by LPS addition and measured after 24 hrs by griess reagent based assay. It counts as functional, cell-based. For orientation: The Griess reaction detects nitrite, a stable product of nitric oxide.

Data set [3] deals with BV-2. Kind of data set: Antineuroinflammatory activity in LPS induced mouse BV-2 cells assessed as reduction in iNOS protein expression at 10 uM pretreated for 4 hrs followed by LPS addition and measured after 24 hrs by Western blot analysis. It counts as functional, cell-based. The following applies: time 28.0 hrs. On the technique in general: Immunoblotting shows a protein as a band on a membrane.

Data set [4] has as its system BV-2. Kind of data set: Antineuroinflammatory activity in LPS induced mouse BV-2 cells assessed as inhibition of NO production at 20 uM pretreated for 4 hrs followed by LPS addition and measured after 24 hrs by griess reagent based assay relative to control. Conditions: time 28 hrs. It counts as functional.
In data set [5] the test system is BV-2. Kind of data set: Antineuroinflammatory activity in LPS induced mouse BV-2 cells assessed as reduction in COX-2 protein expression at 10 uM pretreated for 4 hrs followed by LPS addition and measured after 24 hrs by Western blot analysis. It counts as functional, cell-based. The following applies: time 28.0 hrs.

pIC50: −log10 of the molar value. Calls of active or inactive are those of the source. The calls are words filed in the database; no cut-off is given here.

As to `C=C1[C@@H](O)C[C@H](C(C)(C)OC)/C=C/[C@@H](C)C(=O)[C@@]2(O)C[C@H](C)[C@H](O)[C@@H]2[C@H]1O`, the Activity result with BV-2 [1] is listed as “Non-Toxic”.
The same measure, in the same setting: then `C=C1CC[C@H](C(C)(C)OC)/C=C/[C@@H](C)C(=O)[C@@]2(O)C[C@H](C)[C@H](O)[C@@H]2[C@H]1O`, with “Non-Toxic”; and `C=C1CC[C@H](C(C)(C)OC(=O)COCC)/C=C/[C@@H](C)C(=O)[C@@]2(O)C[C@H](C)[C@H](O)[C@@H]2[C@H]1O`, with “Non-Toxic”.
On the same count and under the same terms, in the case of `C=C1CC[C@H](C(C)(C)OC(C)=O)/C=C/[C@@H](C)C(=O)[C@@]2(O)C[C@H](C)[C@H](O)[C@@H]2[C@H]1O` it was “Non-Toxic”.
As a reminder, the pIC50 is −log10 of the IC50, conventionally taken in molar units. Broadly, the inhibition is how much of the control response was suppressed. In the case of `C=CC(=O)OC(C)(C)[C@@H]1/C=C/[C@@H](C)C(=O)[C@@]2(O)C[C@H](C)[C@H](O)[C@@H]2[C@@H](O)C(=C)CC1`, the Activity result in the data set on BV-2 [1] is on record as “Non-Toxic”. In addition, in the data set on BV-2 [2], the pIC50 is 5.21. Further, the result in the data set with BV-2 [3] and in the data set on BV-2 [5] was Active. In the data set with BV-2 [4], the inhibition at 20 µM came out at 73%.
Consider `C=C1CC[C@H](C(C)(C)OCCCO)/C=C/[C@@H](C)C(=O)[C@@]2(O)C[C@H](C)[C@H](O)[C@@H]2[C@H]1O`, for which the Activity result with BV-2 [1] is “Non-Toxic”. The pIC50 in the data set with BV-2 [2] is 4.89. In addition, the inhibition at 20 µM with BV-2 [4] was 63%.
On the same counts, the results for `C=CC(=O)OC(C)(C)[C@@H]1/C=C/[C@@H](C)C(=O)[C@@]2(O)C[C@H](C)[C@H](O)[C@@H]2[C@@H](O)C(=C)[C@@H](O)C1` are “Non-Toxic”, 5.11 and 70%.
With `C=C1CC[C@H](C(C)(C)OCC)/C=C/[C@@H](C)C(=O)[C@@]2(O)C[C@H](C)[C@H](O)[C@@H]2[C@H]1O`, the Activity result with BV-2 [1] is recorded as “Non-Toxic”.
Take `C=C1[C@@H](O)C[C@H](C(C)(C)OCCCO)/C=C/[C@@H](C)C(=O)[C@@]2(O)C[C@H](C)[C@H](O)[C@@H]2[C@H]1O`: the Activity result with BV-2 [1] is reported as “Non-Toxic”. Also, the pIC50 in the data set with BV-2 [2] was 4.74. For the same compound, the inhibition at 20 µM in the data set with BV-2 [4] was found to be 56%.
Consider `C=C1[C@@H](O)C[C@H](C(C)(C)OC(=O)CC)/C=C/[C@@H](C)C(=O)[C@@]2(O)C[C@H](C)[C@H](O)[C@@H]2[C@H]1O`, for which, in the data set on BV-2 [1], the Activity result was “Non-Toxic”.
On to `O=c1c(O)c(-c2ccc(O)c(O)c2)oc2cc(O)cc(O)c12` [QUERCETIN], for which the pIC50 in the data set on BV-2 [2] was 5.00.
As to `C=C1[C@@H](O)C[C@H](C(C)(C)OCC)/C=C/[C@@H](C)C(=O)[C@@]2(O)C[C@H](C)[C@H](O)[C@@H]2[C@H]1O`, the Activity result in the data set on BV-2 [1] is given as “Non-Toxic”.
Turning to `C=C1[C@@H](O)C[C@H](C(C)(C)OC(C)=O)/C=C/[C@@H](C)C(=O)[C@@]2(O)C[C@H](C)[C@H](O)[C@@H]2[C@H]1O`, the Activity result with BV-2 [1] was “Non-Toxic”.
On the same count and under the same terms, then `C=C1CC[C@H](C(C)(C)OC(=O)CC)/C=C/[C@@H](C)C(=O)[C@@]2(O)C[C@H](C)[C@H](O)[C@@H]2[C@H]1O`, with “Non-Toxic”; and `C=C1[C@@H](O)C[C@H](C(C)(C)OC(=O)COCC)/C=C/[C@@H](C)C(=O)[C@@]2(O)C[C@H](C)[C@H](O)[C@@H]2[C@H]1O`, with “Non-Toxic”.
